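Exposure lasted 48 hours, with cells grown in 96-well plates and compounds tested at five concentrations. At the GI50, growth is halved. TGI denotes the concentration required for complete inhibition of growth.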
Tests used:
Assay in all cases: DTP human tumour cell line panel, 48 h
KM12 colon = system: KM12 colon
COLO 205 colon = system: COLO 205 colon
TK-10 renal = system: TK-10 renal
UACC-62 melanoma = system: UACC-62 melanoma
ACHN renal = system: ACHN renal
MOLT-4 leukemia = system: MOLT-4 leukemia
UACC-257 melanoma = system: UACC-257 melanoma
HCC-2998 colon = system: HCC-2998 colon
SK-MEL-28 melanoma = system: SK-MEL-28 melanoma
SK-OV-3 ovarian = system: SK-OV-3 ovarian

Row | SMILES | TGI (KM12 colon) | TGI (COLO 205 colon) | TGI (TK-10 renal) | TGI (UACC-62 melanoma) | TGI (ACHN renal) | TGI (MOLT-4 leukemia) | TGI (UACC-257 melanoma) | TGI (HCC-2998 colon) | TGI (SK-MEL-28 melanoma) | TGI (SK-OV-3 ovarian) | GI50 (KM12 colon) | GI50 (COLO 205 colon) | GI50 (TK-10 renal) | GI50 (UACC-62 melanoma) | GI50 (ACHN renal) | GI50 (MOLT-4 leukemia) | GI50 (UACC-257 melanoma) | GI50 (HCC-2998 colon) | GI50 (SK-MEL-28 melanoma) | GI50 (SK-OV-3 ovarian)
1 | CC(=O)O[C@@H]1CN(S(=O)(=O)c2ccc(C)cc2)C[C@@H]1C1CCCCC1 | 29.8 µM | 46.5 µM | 41.4 µM | 33.4 µM | > 100 µM | 65.3 µM | 35.7 µM | > 100 µM | 34.3 µM | > 100 µM |  |  |  |  |  |  |  |  |  | 
2 | CC1CC(c2ccc([N+](=O)[O-])cc2)=Nc2ccccc2S1=O (stereo not given) | 26.7 µM | 33.5 µM | 91.6 µM | 38.8 µM | 40.6 µM | > 100 µM | 42.1 µM | 36.8 µM | 43.6 µM | 64.9 µM |  |  |  |  |  |  |  |  |  | 
3 | CC(CNc1nc(Nc2ccc(Cl)c(Cl)c2)nc(C(Cl)(Cl)Cl)n1)N(C)C (stereo not given) | 3.14 µM | 3.39 µM | 3.27 µM | 3.11 µM | 2.94 µM | 3.78 µM | 3.32 µM | 3.04 µM | 3.29 µM | 3.18 µM | 1.7 µM | 1.83 µM | 1.77 µM | 1.71 µM | 1.56 µM | 1.72 µM | 1.75 µM | 1.58 µM | 1.83 µM | 1.6 µM

Reference: PubChem BioAssay (NCI)
